# Source: patent US20240390404A1, “ANTI-HUMAN NOROVIRUS AGENT” (KEIO UNIVERSITY, priority 2018, published 2024)
# Assays:
# [1] = test system: human norovirus GII. 6 strain; assay: Human norovirus proliferation inhibition test by use of 6a-fucose (real-time RT-PCR of genomic RNA), GII.6 strain; assay type: cell-based
# Protocol: (§1) To a medium containing the 2D organoid, 6a-fucose was added so as to adjust a final concentration of 0 μM, 1.6 μM, 8 μM, 40 μM, and 200 μM, and culturing for differentiation induction was performed for 4 days. The culturing was performed by means of a 96-well plate in which 3 wells were dedicated for each 6a-fucose addition system, and one test plate was used for one human norovirus tested. The human norovirus tested included the GII.4 strain and GII. 6 strain. The culturing was performed in a CO2 gas incubator controlled at 37° C.
# (§2) On day 4 of culturing, the medium was removed, and the plate was washed with a new medium. Subsequently, each human norovirus was added at 10^5 RNA copies to the plate for infection, and static culturing was performed for 3 hours. After completion of the infection treatment, human norovirus remaining in the medium was removed together with the medium, and the plate was washed thrice with a new medium.
# (§3) After washing, 6a-fucose was added again to the new medium so as to adjust a final concentration to 0 μM, 1.6 μM, 8 μM, 40 μM, and 200 μM, and culturing was performed for 6 days.
# (§4) A portion (10 μL) of the culture medium was collected from each well at three timings: (a) immediately after the addition to the new medium, (b) on day 3, and (c) on day 6. The sample was centrifuged at 10,000 g for 10 minutes, and the cell precipitate was removed. The human norovirus genomic RNA contained in the supernatant (1 μL) was quantitated through real-time RT-PCR.
# (§5) In FIG. 13, the effects of use of 6a-fucose are shown with respect to (a) human norovirus GII. 4 strain and (b) human norovirus GII. 6 strain. The vertical axis in FIG. 13 represents the copy number of human norovirus genomic RNA (RNA titer), and the numeral under each bar graph represents the time of culturing from the start of the test.
# [2] = test system: human norovirus GII. 4 strain or GII. 6 strain; assay: Effect of treatment with 2fp-fucose or 6a-fucose after differentiation, on infection and reinfection (RNA titer by real-time RT-PCR); assay type: cell-based; settings: fucose analog 200 μM added on day 5, infection on day (5+2), 3 days culturing
# Protocol: (a) The 2D organoid was disseminated to a 96-well plate. After completion of differentiation induction, two fucose analogs (i.e., 2fp-fucose and 6a-fucose) were each added on day 5 to a concentration of 200 μM, to thereby provide addition groups. The results are shown in FIG. 14(a) and FIG. 14(b), respectively. A non-addition group (untreated group) was also provided. Subsequently, the medium was removed from the wells on day (5+2), and the plate was washed. Then, infection with the GII. 4 strain or the GII. 6 strain was performed.
# After the infection treatment, the human norovirus remaining in the medium was removed together with the medium, and the plate was washed thrice with a new medium. After washing, the aforementioned active ingredients were each added to the new medium to a concentration of 200 μM (addition groups), and no addition was performed with respect to the untreated (i.e., non-addition) group. Culturing was performed for 3 days. A portion (10 μL) of the medium was sampled from each well, and the samples were centrifuged at 10,000 g for 10 minutes, to thereby remove cell precipitates. The amount of human norovirus genomic RNA in the supernatant (1 μL) was determined through real-time RT-PCR.
# In the test system, the effect of the anti-norovirus agent of the present invention provided after human norovirus infection was estimated on the basis of the following study. Specifically, among the fucose analog-treated 2D organoid cells, the living cells on growth day 3 (i.e., most of them were not infected with human norovirus, by virtue of the effect of the fucose analog) were subjected to a secondary infection operation (i.e., reinfection). The effect of the fucose analog on the reinfection was investigated.
# In a specific procedure, the addition groups were prepared through the same procedure as employed in (a) above. The primarily infected cells were cultured in the presence of the fucose analog (200 μM) for 3 days, and the medium was removed from each culture system. After completion of washing, the cells were infected again with human norovirus, and then the virus was removed together with the medium. After completion of the next washing, a medium containing the fucose analog (200 μM) (represented by Reinf+2f-fuc or Reinf+6a-fuc), or a fucose analog-free medium (represented by Reinf−2f-fuc or Reinf−6a-fuc) was added thereto, and culturing was performed for further 3 days. Similar to the above case, the amount of human norovirus released to the supernatant was determined as an RNA titer. In the graphs, the two bars on the right side correspond to (Reinf+2f-fuc and Reinf+6a-fuc) or (Reinf−2f-fuc and Reinf−6a-fuc).
# 2D organoid = assay: Cytotoxicity of 6a-fucose to cultured 2D organoid (mono-layer sheet still alive); assay type: cell-based, human; settings: 6a-fucose 1.6 to 200 μM, any of the tested concentrations
# Protocol: as §1
# [3] = test system: human norovirus GII. 4 strain; assay: Human norovirus proliferation inhibition test by use of 6a-fucose (real-time RT-PCR of genomic RNA), GII.4 strain; assay type: cell-based
# Protocol: as §1, §2, §3, §4, §5
# [4] = test system: human norovirus GII.4 (K2017 strain); assay: Human norovirus proliferation inhibition in 2D organoid after agent pre-treatment, GII.4 strain; assay type: cell-based; settings: GII.4, 3 days treatment before infection
# Protocol: Feces of a human norovirus-infected patent contains a large amount of infectious human norovirus. Thus, the feces of a human norovirus-infected patient is suspended in distilled water or the like to a final concentration of about 10%, to thereby prepare a “10% feces suspension.” The 10% feces suspension is about 10-fold diluted with an ENRA medium. The diluted suspension is added to each of the aforementioned wells having the 2D organoid (5 μL/well) and subjected to incubation for about 3 hours, to thereby proliferate human norovirus. As a result of verification, it has been confirmed that human norovirus proliferates to about 100,000 times the initial count through the culture system employing the 2D organoid.
# In the Example, there were tested strains of human norovirus obtained from feces of human norovirus infection patients through the aforementioned procedure and stocked before the test. Specifically, three strains belonging to the genetic group 2 (GII) which accounts for 80 to 90% of the infected patients were selected as test targets. The isolated strain lineages included in GII (FIG. 1) were GII. 6 belonging to “Lineage 1,” GII. 3 belonging to “Lineage 2,” and GII.4 belonging to “Lineage 3” (GII. 6: K2017 strain, GII.3: TCH2004 strain, and GII. 4: K2017 strain).
# The effect of 2fp-fucose treatment on proliferation of human norovirus was investigated for each lineage of norovirus. Specifically, after the 2fp-fucose treatment for 3 days, the 2D organoid was infected with each of the aforementioned norovirus strains GII.6, GII. 3, and GII. 4, and the viral proliferation amount was determined on days 3 and 6 after infection (FIG. 4).
# Next, there was investigated the effect of the period of time (the number of days) of the 2fp-fucose treatment performed in advance on the anti-human norovirus action of the fucose analog. Specifically, the strain GII. 4 was treated with 2fp-fucose (several concentrations) for 1 to 4 days. […] However, in the group of 3-day treatment, the proliferation inhibition effect was observed by the 200 μM treatment with a certain range of variation in effectiveness. In the group of 4-day treatment, the proliferation inhibition effect was initially observed by 8 μM treatment, and the effect increased in a concentration-dependent manner to a 2fp-fucose concentration of 200 μM. […] Thus, the highest proliferation inhibition effect was obtained in the 2D organoid system through a 200 μM treatment for 3 to 4 days. The test was repeatedly performed three times. Error bars denote SEMs.
# The 2D organoid was treated with an agent for 3 days. The tested agents were (a) 2fp-fucose (200 μM), (b) Sofosbuvir (1 μM), (c) Lamivudine (1 μM), (d) Ribavirin (400 μM), and (e) Mizoribine (100 μM). Subsequently, the thus-treated 2D organoid was infected with human norovirus (the norovirus strain GII.4), and the proliferation inhibition effect was determined (FIG. 6). The test was repeatedly performed three times. Error bars denote SEMs.
smiles,measurement,setting,value
"C#C[C@@H]1OC(OC(C)=O)[C@@H](OC(C)=O)[C@H](OC(C)=O)[C@@H]1OC(C)=O (stereo partly drawn) [6a-fucose, 1,2,3,4-tetra-O-acetyl-6,7-dideoxy-L-galacto-hept-6-ynopyranose]",proliferation inhibition effect,[1]; 6a-fucose 1.6 μM,not recognized
same,human norovirus genome proliferation,"[1]; 6a-fucose 8 μM, culture days 3 and 6",actively suppressed
same,human norovirus genome proliferation,[1]; 6a-fucose 40 μM,completely inhibited
same,rise in RNA titer (proliferation of human norovirus) in the addition group,[2],no rise in RNA titer
same,rise in RNA titer of the untreated group with respect to the administration system,[2],≥ 150 fold
same,cytotoxicity to cultured cells (2D organoid),2D organoid,no cytotoxicity attributed to addition of 6a-fucose was observed
same,rise in RNA titer relative to the titer at the start of culturing,[3]; 6a-fucose 8 μM,about 10 times
same,rise in RNA titer,"[3]; 6a-fucose 40 μM, day 6",no substantial increase in RNA titer was observed
same,rise in RNA titer,[3]; 6a-fucose 200 μM,completely inhibited
same,6a-fucose concentration at which the proliferation inhibition effect emerged,"[3]; 4 days pre-treatment, 6 days culturing after infection",1.6 µM
same,RNA titer relative to the titer at the start of culturing,"[3]; each 6a-fucose treatment group (any concentration), culture day 6",≤ 100 times
"NC(=O)c1ncn([C@@H]2O[C@H](CO)[C@@H](O)[C@H]2O)c1O [Mizoribine, reference compound]",viral RNA titer from day 0 to day 7 (proliferation inhibition effect),[4]; agent 100 μM,no effect of inhibiting proliferation of human norovirus
"NC(=O)c1ncn([C@@H]2O[C@H](CO)[C@@H](O)[C@H]2O)n1 [Ribavirin, reference compound]",viral RNA titer from day 0 to day 7 (proliferation inhibition effect),[4]; agent 400 μM,no effect of inhibiting proliferation of human norovirus
"CC(C)OC(=O)[C@H](C)N[P@](=O)(OC[C@H]1O[C@@H](n2ccc(=O)[nH]c2=O)[C@](C)(F)[C@@H]1O)Oc1ccccc1 [Sofosbuvir, reference compound]",viral RNA titer from day 0 to day 7 (proliferation inhibition effect),[4]; agent 1 μM,no effect of inhibiting proliferation of human norovirus
